Reference: patent US8592174B2, “Peptidase substrates” (bioMérieux, S.A., priority 2009, dated 2013)
One block for each molecule: values may come before it.

What was measured:
Format in all cases: cell-based
[1] = test system: Serratia marcescens 7303004; experiment: Peptidase detection on Columbia medium (Example 5); settings: 75 mg/l, 48 h 37° C.
Method: (§1) After homogenization, the media were distributed into Petri dishes 55 mm in diameter. A medium acting as a growth control (Columbia) and denoted C was also poured.
(§2) Twenty-two strains of microorganisms were inoculated with a 10 μl calibrated loop according to the three-quadrant streaking method using bacterial suspensions at 0.5 McFarland.

Escherichia coli 0002005 [2] = experiment: Peptidase detection on Columbia medium (Example 5); settings: 75 mg/l, 48 h 37° C.
Method: as §1, §2

[3] = test system: Bacillus subtilis 0204038; experiment: Peptidase detection on Columbia medium (Example 5); settings: 75 mg/l, 48 h 37° C.
Method: as §1, §2

[4] = test system: Yersinia enterocolitica 7605019; experiment: Peptidase detection on Columbia medium (Example 5); settings: 75 mg/l, 48 h 37° C.
Method: as §1, §2

[5] = test system: Streptococcus pyogenes 9806380; experiment: Peptidase detection on Columbia medium (Example 5); settings: 75 mg/l, 48 h 37° C.
Method: as §1, §2

[6] = test system: Enterococcus faecium 0610021; experiment: Peptidase detection on Columbia medium (Example 5); settings: 75 mg/l, 48 h 37° C.
Method: as §1, §2

[7] = test system: Providencia rettgeri 0706064; experiment: Peptidase detection on Columbia medium (Example 5); settings: 75 mg/l, 48 h 37° C.
Method: as §1, §2

[8] = test system: Enterococcus faecalis 0008192; experiment: Peptidase detection on Columbia medium (Example 5); settings: 75 mg/l, 48 h 37° C.
Method: as §1, §2

[9] = test system: Acinetobacter baumannii 0604029; experiment: Peptidase detection on Columbia medium (Example 4); settings: 75 mg/l, 48 h 37° C.; for Growth: control C: ++
Description: (§3) After homogenization, the media were distributed into 120-mm-squared dishes. A medium serving as a growth control (Columbia) and denoted C was also poured.

[10] = test system: Enterobacter cloacae 0604040; experiment: Peptidase detection on Columbia medium (Example 4); settings: 75 mg/l, 48 h 37° C.; for Growth: control C: ++
Description: as §3

[11] = test system: Serratia marcescens 7303004; experiment: Peptidase detection on Columbia medium (Example 4); settings: 75 mg/l, 48 h 37° C.; for Growth: control C: ++
Description: as §3

Escherichia coli 0002005 [12] = experiment: Peptidase detection on Columbia medium (Example 4); settings: 75 mg/l, 48 h 37° C.; for Growth: control C: ++
Description: as §3

[13] = test system: Burkholderia cepacia 7507032; experiment: Peptidase detection on Columbia medium (Example 4); settings: 75 mg/l, 48 h 37° C.; for Growth: control C: ++
Description: as §3

[14] = test system: Bacillus subtilis 0204038; experiment: Peptidase detection on Columbia medium (Example 4); settings: 75 mg/l, 48 h 37° C.; for Growth: control C: ++
Description: as §3

[15] = test system: Citrobacter freundii 0006197; experiment: Peptidase detection on Columbia medium (Example 4); settings: 75 mg/l, 48 h 37° C.; for Growth: control C: ++
Description: as §3

[16] = test system: Staphylococcus aureus 7811049; experiment: Peptidase detection on Columbia medium (Example 4); settings: 75 mg/l, 48 h 37° C.; for Growth: control C: ++
Description: as §3

MRSA 0303033 = experiment: Peptidase detection on Columbia medium (Example 4); settings: 75 mg/l, 48 h 37° C.; for Growth: control C: ++
Description: as §3

[17] = test system: Yersinia enterocolitica 7605019; experiment: Peptidase detection on Columbia medium (Example 4); settings: 75 mg/l, 48 h 37° C.; for Growth: control C: ++
Description: as §3

[18] = test system: Streptococcus pyogenes 9806380; experiment: Peptidase detection on Columbia medium (Example 4); settings: 75 mg/l, 48 h 37° C.; for Growth: control C: ++
Description: as §3

[19] = test system: Klebsiella pneumoniae 0008009; experiment: Peptidase detection on Columbia medium (Example 4); settings: 75 mg/l, 48 h 37° C.; for Growth: control C: ++
Description: as §3

Candida glabrata 0408083 = experiment: Peptidase detection on Columbia medium (Example 4); settings: 75 mg/l, 48 h 37° C.; for Growth: control C: +
Description: as §3

[20] = test system: Salmonella ser typhimurium 0801029; experiment: Peptidase detection on Columbia medium (Example 4); settings: 75 mg/l, 48 h 37° C.; for Growth: control C: ++
Description: as §3

[21] = test system: Staphylococcus epidermidis 0203050; experiment: Peptidase detection on Columbia medium (Example 4); settings: 75 mg/l, 48 h 37° C.; for Growth: control C: ++
Description: as §3

[22] = test system: Enterococcus faecium 0610021; experiment: Peptidase detection on Columbia medium (Example 4); settings: 75 mg/l, 48 h 37° C.; for Growth: control C: ++
Description: as §3

[23] = test system: Pseudomonas aeruginosa 0001001; experiment: Peptidase detection on Columbia medium (Example 4); settings: 75 mg/l, 48 h 37° C.; for Growth: control C: ++
Description: as §3

[24] = test system: Providencia rettgeri 0706064; experiment: Peptidase detection on Columbia medium (Example 4); settings: 75 mg/l, 48 h 37° C.; for Growth: control C: ++
Description: as §3

[25] = test system: Listeria monocytogenes 8812049; experiment: Peptidase detection on Columbia medium (Example 4); settings: 75 mg/l, 48 h 37° C.; for Growth: control C: ++
Description: as §3

Candida albicans 0801025 = experiment: Peptidase detection on Columbia medium (Example 4); settings: 75 mg/l, 48 h 37° C.; for Growth: control C: ++
Description: as §3

[26] = test system: Morganella morganii 9207053; experiment: Peptidase detection on Columbia medium (Example 4); settings: 75 mg/l, 48 h 37° C.; for Growth: control C: ++
Description: as §3

[27] = test system: Enterococcus faecalis 0008192; experiment: Peptidase detection on Columbia medium (Example 4); settings: 75 mg/l, 48 h 37° C.; for Growth: control C: ++
Description: as §3

[28] = test system: Yersinia enterocolitica NCTC 11 176; experiment: Peptidase detection on Columbia medium (Example 2); parameters: key to Growth: NG: No growth; 0.5: weak growth; 1: moderate growth; 2: good growth; settings: 40 mg in 400 ml Columbia; 24 h 37° C.
Method: The 6 media were distributed into Petri dishes 90 mm in diameter, in a proportion of 20 ml per dish.
Seventeen strains of microorganisms stemming from collections and belonging to various species of bacteria and yeasts are inoculated in spots of approximately 10 000 colony-forming units.
The media are incubated for 24 hours at 37° C., and then the colonies formed are examined visually, with or without the addition of acid and under a UV lamp at 365 nm.

Color [1]: orange
Coloration strength [1]: ++
Growth ([1]; control C: ++): ++
Color [3]: orange
Coloration strength [3]: +
Growth ([3]; control C: ++): ++
Color [5]: orange
Coloration strength [5]: +
Growth ([5]; control C: +): +
Color [6]: −
Coloration strength [6]: −
Growth ([6]; control C: +): +
Color [8]: orange
Coloration strength [8]: +
Growth ([8]; control C: +): +
Color [9]: orange
Coloration strength [9]: ++
Growth [9]: ++
Color [10]: orange
Coloration strength [10]: ++
Growth [10]: ++
Color [11]: orange
Coloration strength [11]: ++
Growth [11]: ++
Color [13]: orange
Coloration strength [13]: +
Growth [13]: ++
Color [14]: −
Coloration strength [14]: −
Growth [14]: ++
Color [15]: orange
Coloration strength [15]: +
Growth [15]: ++
Color (MRSA 0303033): orange
Coloration strength (MRSA 0303033): +
Growth (MRSA 0303033): ++
Color [18]: orange
Coloration strength [18]: +
Growth [18]: ++
Color [19]: orange
Coloration strength [19]: ++
Growth [19]: ++
Color [20]: orange
Coloration strength [20]: +
Growth [20]: ++
Color [22]: −
Coloration strength [22]: −
Growth [22]: ++
Color [23]: orange
Coloration strength [23]: ++
Growth [23]: ++
Color [25]: orange
Coloration strength [25]: ++
Growth [25]: ++
Color [26]: orange
Coloration strength [26]: ++
Growth [26]: ++
Color [27]: orange
Coloration strength [27]: +
Growth [27]: ++
SMILES: C[C@H](N)C(=O)Nc1ccc(C=Cc2cc[n+](C)c3ccccc23)cc1.Cl.[Cl-] [L-alanyl-4-(4′-amidostyryl)-N-methylquinolinium (dichloride)]
Color (Escherichia coli 0002005 [2]): orange
Coloration strength (Escherichia coli 0002005 [2]): ++
Growth (Escherichia coli 0002005 [2]; control C: ++): ++
Color [4]: orange
Coloration strength [4]: ++
Growth ([4]; control C: +): +
Color [7]: orange
Coloration strength [7]: ++
Growth ([7]; control C: ++): ++
Color (Escherichia coli 0002005 [12]): orange
Coloration strength (Escherichia coli 0002005 [12]): ++
Growth (Escherichia coli 0002005 [12]): ++
Coloration strength [16]: +
Growth [16]: ++
Color [17]: orange
Coloration strength [17]: ++
Growth [17]: ++
Coloration strength (Candida glabrata 0408083): −
Growth (Candida glabrata 0408083): +
Color [21]: orange
Coloration strength [21]: ++
Growth [21]: ++
Color [24]: orange
Coloration strength [24]: +
Growth [24]: ++
Coloration strength (Candida albicans 0801025): −
Growth (Candida albicans 0801025): ++

Color [9]: orange
Coloration strength [9]: ++
Growth [9]: ++
Color [10]: orange
Coloration strength [10]: ++
Growth [10]: ++
Color [11]: orange
Coloration strength [11]: ++
Growth [11]: ++
Color [13]: orange
Coloration strength [13]: +
Growth [13]: ++
Coloration strength [14]: −
Growth [14]: ++
Color [15]: orange
Coloration strength [15]: +
Growth [15]: ++
Color (MRSA 0303033): orange
Coloration strength (MRSA 0303033): +
Growth (MRSA 0303033): ++
Color [18]: orange
Coloration strength [18]: +
Growth [18]: ++
Color [19]: orange
Coloration strength [19]: ++
Growth [19]: ++
Color [20]: orange
Coloration strength [20]: +
Growth [20]: ++
Coloration strength [22]: −
Growth [22]: ++
Color [23]: orange
Coloration strength [23]: ++
Growth [23]: ++
Color [25]: orange
Coloration strength [25]: ++
Growth [25]: ++
Color [26]: orange
Coloration strength [26]: ++
Growth [26]: ++
Color [27]: orange
Coloration strength [27]: +
Growth [27]: ++
SMILES: C[C@H](N)C(=O)N[C@@H](C)C(=O)N[C@@H](C)C(=O)Nc1ccc(C=Cc2cc[n+](C)c3ccccc23)cc1.Cl.[Cl-] [Tri-Ala-ASQM^+, L-alanyl-L-alanyl-L-alanyl-4-(4′-amidostyryl)-N-methylquinolinium (dichloride)]
Color (Escherichia coli 0002005 [12]): orange
Coloration strength (Escherichia coli 0002005 [12]): ++
Growth (Escherichia coli 0002005 [12]): ++
Coloration strength [16]: +
Growth [16]: ++
Color [17]: orange
Coloration strength [17]: ++
Growth [17]: ++
Growth (Candida glabrata 0408083): −
Color [21]: orange
Coloration strength [21]: ++
Growth [21]: ++
Color [24]: orange
Coloration strength [24]: +
Growth [24]: ++
Growth (Candida albicans 0801025): +
Growth [28]: 2
